One data set concerns MCF-7 cancer cells. Kind of data set: MTT-based cell viability assay, MCF-7. The note with it: Homo sapiens, MCF7, 72 h, read-out: MCF-7 cancer cell toxicity GI50 ± SEM. The text has this: (§1) MCT1-expressing cells have an extraordinary energy demand and rely on pyruvate metabolism, through either lactate conversion or pyruvate consumption. Inhibition of MCT1 blocks lactate and pyruvate influx into cancer cells, which prevents their processing in the TCA cycle. Over time, the viability of cells exposed to an MCT1 inhibitor is impaired due to pyruvate deprivation, which is compensated by upregulating glucose metabolism—leading to an overconsumption of glucose. To confirm the antiproliferative nature of the indole derivatives, we investigated the compounds toward the MCT1-expressing cell lines A-549[14],[15] and MCF-7.[16] Cancer cell viability was assessed via a 3-(4,5-dimethylthiazol-2-yl)-2,5-diphenyltetrazolium bromide (MTT) assay, as reported earlier.[43]
(§2) To determine the growth inhibitory potential of compounds 17–32, […] of each compound either at concentrations between 1 and 100 μM (A-549 or MCF-7) or at 10 and 50 μM (NIH/3T3) was pipetted into colorless flat-bottom 96-well microplates. Thereafter, 180 μL of a cell suspension (5000 cells/well) of either A-549, MCF-7, or NIH/3T3 cells was added and subsequently kept for 72 h at 37 °C under a 5% CO2-humidified atmosphere. The cell viability as well as the GI50 values were determined as described above.[43]

In a further data set the test system is A-549 cancer cells. Kind of data set: MTT-based cell viability assay, A-549. The note with it: Homo sapiens, A549, 72 h, read-out: A-549 cancer cell toxicity GI50 ± SEM.
Source text: as §1, §2

The next data set concerns the target ABCC1 (Homo sapiens, UniProt P33527). The data set can be described thus: daunorubicin assay, ABCC1-expressing H69AR cells. The note with it: screening at 10 μM, inhibitor if 20% (+SEM) reached.
Another data set has as its target T1, MCT1 (Homo sapiens, UniProt P53985).
T1 construct: MCT1-expressing A-549 cells[14],[15] were exposed to the MCT1 substrate 3-BP, which becomes influxed by MCT1; endogenous in cells; host or cells: A-549 lung cancer cells (from NCCS, Pune)
T1 sequence (P53985 1-500): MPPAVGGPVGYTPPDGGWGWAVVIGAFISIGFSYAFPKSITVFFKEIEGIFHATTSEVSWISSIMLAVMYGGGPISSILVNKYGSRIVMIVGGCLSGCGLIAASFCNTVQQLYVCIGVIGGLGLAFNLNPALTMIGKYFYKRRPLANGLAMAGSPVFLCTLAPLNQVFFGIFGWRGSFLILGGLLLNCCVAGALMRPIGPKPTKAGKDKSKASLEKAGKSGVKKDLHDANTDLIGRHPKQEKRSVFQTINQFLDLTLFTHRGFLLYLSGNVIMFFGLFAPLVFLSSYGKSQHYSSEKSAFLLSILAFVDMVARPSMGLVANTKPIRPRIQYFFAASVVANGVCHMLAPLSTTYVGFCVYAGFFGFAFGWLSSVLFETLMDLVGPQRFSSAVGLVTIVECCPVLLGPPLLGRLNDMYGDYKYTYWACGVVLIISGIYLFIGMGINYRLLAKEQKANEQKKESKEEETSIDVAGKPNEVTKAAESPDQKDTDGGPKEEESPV
T1 sequence (P35613 140-385 partner limits assumed): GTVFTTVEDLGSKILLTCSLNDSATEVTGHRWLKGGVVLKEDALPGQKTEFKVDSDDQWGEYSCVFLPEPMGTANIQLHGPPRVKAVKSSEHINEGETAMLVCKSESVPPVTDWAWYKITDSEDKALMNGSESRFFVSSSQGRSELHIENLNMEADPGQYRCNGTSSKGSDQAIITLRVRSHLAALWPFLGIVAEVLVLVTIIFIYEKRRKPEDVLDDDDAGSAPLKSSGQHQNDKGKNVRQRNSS
Kind of data set: functional 3-BP cell viability assay (MCT1 transport inhibition). The class given is cell-based. The following applies: MCT1-expressing A-549 cells, 50 μM 3-BP, 72 h; read-out: MCT1 transport inhibition IC50 ± SEM. On the procedure:
The inhibitory activity of indole derivatives against MCT1 was determined by applying a functional 3-bromopyruvate (3-BP) cell viability assay, as described in the literature[20],[39] with minor modifications. In short, MCT1-expressing A-549 cells[14],[15] were exposed to the MCT1 substrate 3-BP, which becomes influxed by MCT1. 3-BP is toxic, leading to decreased cell viability. Functional inhibition of MCT1 results in reduced intracellular 3-BP levels and, thus, enhanced cell viability compared to no inhibition. […] Table 1 provides the half-maximal inhibition concentration (IC50) values of compounds 17–32.
A functional 3-BP cytotoxicity assay was conducted as described in the literature[20],[39] with minor modifications. Dilution series of compounds 17–32 between 1 nM and 1 μM were prepared in DPBS (Cell Clone, Genetix Biotech Asia, New Delhi India), and 10 μL of each concentration was pipetted into a colorless flat-bottom 96-well microplate (SPL Life Sciences, Gyeonggi-do, Republic of Korea). One hundred and eighty microliters of a cell suspension (5000 cells/well) of A-549 cells was added, and subsequently, 10 μL of 3-BP was added at a concentration of 1 mM (final concentration per well: 50 μM). The plate was kept for 72 h at 37 °C under a 5% CO2-humidified atmosphere. Cell viability was determined as described before[43] by adding 20 μL of a 5 mg/mL solution of MTT to each well and further incubation for 1 h. Eventually, the supernatant was removed and 100 μL of DMSO was added to each well. The absorbance was spectrophotometrically determined at 570 nm using a SpectraMax iD3 multi-mode microplate reader (Molecular Devices, San Jose, CA) with a background correction (690 nm). The determined absorbance values were correlated to the logarithmic concentrations of compounds 17–32, and IC50 values were calculated applying nonlinear regression using GraphPad Prism (version 8.4.0., San Diego, CA).

A further data set has as its target ABCB1 (Homo sapiens, UniProt P08183). Kind of data set: calcein AM assay, ABCB1-expressing A2780/ADR cells. The note with it: screening at 10 μM, inhibitor if 20% (+SEM) reached.

Chain of ABCC1 (P33527 whole entry): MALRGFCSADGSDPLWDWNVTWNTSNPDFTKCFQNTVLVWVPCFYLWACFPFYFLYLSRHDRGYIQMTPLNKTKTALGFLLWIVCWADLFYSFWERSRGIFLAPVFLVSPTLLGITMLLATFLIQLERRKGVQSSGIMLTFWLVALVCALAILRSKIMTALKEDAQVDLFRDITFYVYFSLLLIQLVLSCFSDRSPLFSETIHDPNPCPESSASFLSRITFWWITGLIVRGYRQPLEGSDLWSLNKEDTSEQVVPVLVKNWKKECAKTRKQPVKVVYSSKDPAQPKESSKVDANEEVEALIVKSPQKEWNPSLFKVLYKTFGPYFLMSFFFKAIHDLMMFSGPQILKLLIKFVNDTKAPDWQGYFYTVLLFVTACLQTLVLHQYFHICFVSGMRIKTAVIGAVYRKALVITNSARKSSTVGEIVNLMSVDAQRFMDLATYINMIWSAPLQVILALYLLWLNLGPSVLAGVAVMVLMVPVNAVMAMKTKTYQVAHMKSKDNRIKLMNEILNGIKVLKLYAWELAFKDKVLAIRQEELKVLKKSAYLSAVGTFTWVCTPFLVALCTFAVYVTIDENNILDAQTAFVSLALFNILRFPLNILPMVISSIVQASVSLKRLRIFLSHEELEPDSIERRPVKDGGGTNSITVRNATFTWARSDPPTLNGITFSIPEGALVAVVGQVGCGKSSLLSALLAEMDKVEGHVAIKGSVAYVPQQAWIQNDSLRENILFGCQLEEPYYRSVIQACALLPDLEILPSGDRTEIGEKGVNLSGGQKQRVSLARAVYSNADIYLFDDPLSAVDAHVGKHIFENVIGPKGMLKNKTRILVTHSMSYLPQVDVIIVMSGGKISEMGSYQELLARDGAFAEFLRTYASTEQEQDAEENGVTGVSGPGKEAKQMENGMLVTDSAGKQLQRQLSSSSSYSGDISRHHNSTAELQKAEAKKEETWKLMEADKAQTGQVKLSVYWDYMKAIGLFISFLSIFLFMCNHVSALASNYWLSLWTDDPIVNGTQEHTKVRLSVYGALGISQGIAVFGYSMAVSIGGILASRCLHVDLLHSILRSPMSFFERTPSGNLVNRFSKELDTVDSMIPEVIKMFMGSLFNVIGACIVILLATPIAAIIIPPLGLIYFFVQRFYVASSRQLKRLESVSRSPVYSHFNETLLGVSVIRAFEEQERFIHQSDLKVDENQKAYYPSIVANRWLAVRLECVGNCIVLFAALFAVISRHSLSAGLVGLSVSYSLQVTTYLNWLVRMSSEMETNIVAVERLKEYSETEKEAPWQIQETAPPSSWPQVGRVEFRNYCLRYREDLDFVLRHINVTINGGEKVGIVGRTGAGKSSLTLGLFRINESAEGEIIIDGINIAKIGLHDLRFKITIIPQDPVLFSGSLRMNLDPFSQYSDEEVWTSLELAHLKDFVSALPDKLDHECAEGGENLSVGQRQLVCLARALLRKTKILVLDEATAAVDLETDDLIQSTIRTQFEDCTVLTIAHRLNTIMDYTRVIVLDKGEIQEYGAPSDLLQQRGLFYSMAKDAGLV
Chain of ABCB1 (P08183 whole entry): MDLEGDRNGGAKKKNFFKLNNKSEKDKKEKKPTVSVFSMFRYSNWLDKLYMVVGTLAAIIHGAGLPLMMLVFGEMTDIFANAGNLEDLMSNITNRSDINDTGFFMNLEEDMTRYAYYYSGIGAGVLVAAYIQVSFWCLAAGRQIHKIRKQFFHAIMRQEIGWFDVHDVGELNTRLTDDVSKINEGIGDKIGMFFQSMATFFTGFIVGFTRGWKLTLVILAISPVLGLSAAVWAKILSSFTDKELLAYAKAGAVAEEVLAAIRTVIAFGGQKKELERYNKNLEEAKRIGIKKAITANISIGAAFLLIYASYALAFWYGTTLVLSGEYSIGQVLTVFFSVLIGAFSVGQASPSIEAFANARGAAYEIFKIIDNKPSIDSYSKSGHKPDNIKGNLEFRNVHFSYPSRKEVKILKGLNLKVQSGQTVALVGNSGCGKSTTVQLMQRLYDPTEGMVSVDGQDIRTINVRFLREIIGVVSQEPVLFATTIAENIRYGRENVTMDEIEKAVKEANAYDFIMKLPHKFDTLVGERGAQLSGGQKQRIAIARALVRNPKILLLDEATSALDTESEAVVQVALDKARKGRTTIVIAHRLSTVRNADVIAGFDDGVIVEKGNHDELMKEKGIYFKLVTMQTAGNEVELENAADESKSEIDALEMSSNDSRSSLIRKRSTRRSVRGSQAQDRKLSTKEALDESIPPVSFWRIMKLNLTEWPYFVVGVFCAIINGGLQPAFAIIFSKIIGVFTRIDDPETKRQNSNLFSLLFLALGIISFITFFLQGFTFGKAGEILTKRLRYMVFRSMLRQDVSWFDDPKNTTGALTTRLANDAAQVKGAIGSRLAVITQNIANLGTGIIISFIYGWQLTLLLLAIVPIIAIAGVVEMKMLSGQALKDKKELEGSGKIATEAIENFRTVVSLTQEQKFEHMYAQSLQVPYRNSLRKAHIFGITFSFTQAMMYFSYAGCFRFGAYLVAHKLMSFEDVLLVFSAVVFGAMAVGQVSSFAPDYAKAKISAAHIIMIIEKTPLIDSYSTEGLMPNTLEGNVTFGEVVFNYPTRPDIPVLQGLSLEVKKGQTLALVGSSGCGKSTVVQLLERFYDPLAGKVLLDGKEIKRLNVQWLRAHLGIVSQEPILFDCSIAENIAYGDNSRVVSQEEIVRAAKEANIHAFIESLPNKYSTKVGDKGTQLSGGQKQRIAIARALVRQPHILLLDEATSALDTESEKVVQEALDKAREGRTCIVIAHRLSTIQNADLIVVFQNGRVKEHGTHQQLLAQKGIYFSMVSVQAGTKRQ
Source text for ABCB1: (§3) To provide a detailed picture of the pharmacological profile of the indole derivatives, we investigated their modulatory nature on the most prominent ABC transporters ABCB1 (P-glycoprotein, P-gp), ABCC1, (multidrug resistance-associated protein 1, MRP1), and ABCG2 (breast cancer resistance protein, BCRP). Here, we conducted calcein AM (ABCB1),[2],[52]−[59] daunorubicin (ABCC1),[52],[58]−[60] and pheophorbide A (ABCG2)[2],[52]−[60] assays using ABCB1-expressing A2780/ADR, ABCC1-expressing H69AR, and ABCG2-expressing MDCK II BCRP cells, respectively.
(§4) The calcein AM (ABCB1),[2],[52]−[59] daunorubicin (ABCB1[52],[60] and ABCC1[52],[58]−[60]), and pheophorbide A (ABCG2)[2],[52]−[60] assays were conducted as reported earlier. […] The data was processed using GraphPad Prism version 8.4.0, and IC50 values were determined, applying three- or four-parameter logistic equations, whatever was statistically preferred.
Source text for ABCC1: as §3, §4

Take `COC(=O)/C(C#N)=C/c1cn(CC(=O)Nc2cccnc2)c2ccccc12` [Compound 32, Methyl-2-cyano-3-(1-(2-oxo-2-(pyridin-3-ylamino)ethyl)-1H-indol-3-yl) Acrylate]: the figures for the GI50 with MCF-7 cancer cells and in the data set with A-549 cancer cells were 11.1 ± 0.2 µM and 19.2 ± 0.4 µM, respectively. For the same compound, the ABCC1 inhibition result at ABCC1 is reported as “X (Compounds were considered as inhibitors if they reached 20% (+SEM) inhibition compared to the reference inhibitors 33–35; X = fulfilled)”. The IC50 at MCT1 came out at 0.109 ± 0.003 µM. Besides, the ABCB1 inhibition entry on ABCB1 is given as “X (Compounds were considered as inhibitors if they reached 20% (+SEM) inhibition compared to the reference inhibitors 33–35; X = fulfilled)”.
`COC(=O)/C(C#N)=C/c1cn(CC(=O)Nc2ccc(C)cc2)c2ccccc12` [Compound 21, Methyl-2-cyano-3-(1-(2-oxo-2-(p-tolylamino)ethyl)-1H-indol-3-yl) Acrylate]: the GI50 in the data set with MCF-7 cancer cells amounted to 13.9 ± 0.1 µM; with A-549 cancer cells, 14 ± 0.5 µM. The ABCC1 inhibition entry at ABCC1 is “X (Compounds were considered as inhibitors if they reached 20% (+SEM) inhibition compared to the reference inhibitors 33–35; X = fulfilled)”. In addition, the IC50 on MCT1 is 0.112 ± 0.01 µM. For the same compound, the ABCB1 inhibition entry on ABCB1 is given as “X (Compounds were considered as inhibitors if they reached 20% (+SEM) inhibition compared to the reference inhibitors 33–35; X = fulfilled)”.
As for `COC(=O)/C(C#N)=C/c1cn(CC(=O)Nc2ccc(F)cc2)c2ccccc12` [Compound 25, Methyl-2-cyano-3-(1-(2-((4-fluorophenyl)amino)-2-oxoethyl)-1H-indol-3-yl) Acrylate], the GI50 stood at 15.1 ± 0.3 µM in the data set on MCF-7 cancer cells and 22 ± 0.6 µM in the data set on A-549 cancer cells. Also, the ABCC1 inhibition entry on ABCC1 was “X (Compounds were considered as inhibitors if they reached 20% (+SEM) inhibition compared to the reference inhibitors 33–35; X = fulfilled)”. At MCT1, the IC50 is 0.793 ± 0.138 µM. Further, the ABCB1 inhibition entry on ABCB1 is reported as “X (Compounds were considered as inhibitors if they reached 20% (+SEM) inhibition compared to the reference inhibitors 33–35; X = fulfilled)”.
On to `COC(=O)/C(C#N)=C/c1cn(CC(=O)Nc2cccc3ccccc23)c2ccccc12` [Compound 18, Methyl-2-cyano-3-(1-(2-(naphthalen-1-ylamino)-2-oxoethyl)-1H-indol-3-yl) Acrylate], for which the GI50 in the data set with MCF-7 cancer cells is 15.4 ± 0.5 µM; in the data set on A-549 cancer cells, 21.5 ± 0.4 µM. At MCT1, the IC50 was found to be 0.193 ± 0.01 µM. For the same compound, on ABCB1, the ABCB1 inhibition result is given as “X (Compounds were considered as inhibitors if they reached 20% (+SEM) inhibition compared to the reference inhibitors 33–35; X = fulfilled)”.
For the compound `COC(=O)/C(C#N)=C/c1cn(CC(=O)Nc2ccccn2)c2ccccc12` [Compound 29, Methyl-2-cyano-3-(1-(2-oxo-2-(pyridin-2-ylamino)ethyl)-1H-indol-3-yl) Acrylate], the figures for the GI50 in the data set with MCF-7 cancer cells and in the data set on A-549 cancer cells were 4.32 ± 0.14 µM and 17.1 ± 0.4 µM, respectively. On MCT1, the IC50 was 0.198 ± 0.004 µM.
`COC(=O)/C(C#N)=C/c1cn(CC(=O)Nc2c(Cl)cccc2Cl)c2ccccc12` [Compound 27, Methyl-2-cyano-3-(1-(2-((2,6-dichlorophenyl)amino)-2-oxoethyl)-1H-indol-3-yl) Acrylate]: the results for the concentration for 50% growth inhibition (GI50) in the data set with MCF-7 cancer cells and in the data set with A-549 cancer cells were 17.3 ± 0.6 µM and 25 ± 0.5 µM, respectively. Besides, the ABCC1 inhibition entry on ABCC1 is “X (Compounds were considered as inhibitors if they reached 20% (+SEM) inhibition compared to the reference inhibitors 33–35; X = fulfilled)”. The IC50 on MCT1 turned out to be 0.109 ± 0.002 µM. In addition, on ABCB1, the ABCB1 inhibition entry is “X (Compounds were considered as inhibitors if they reached 20% (+SEM) inhibition compared to the reference inhibitors 33–35; X = fulfilled)”.
Regarding `COC(=O)/C(C#N)=C/c1cn(CC(=O)Nc2ccc(Cl)cc2)c2ccccc12` [Compound 26, Methyl-3-(1-(2-((4-chlorophenyl)amino)-2-oxoethyl)-1H-indol-3-yl)-2-cyanoacrylate], the GI50 in the data set on MCF-7 cancer cells was 10.7 ± 0.4 µM; with A-549 cancer cells, 21 ± 0.4 µM. In addition, the ABCC1 inhibition entry on ABCC1 was “X (Compounds were considered as inhibitors if they reached 20% (+SEM) inhibition compared to the reference inhibitors 33–35; X = fulfilled)”. Moreover, the IC50 at MCT1 turned out to be 0.196 ± 0.005 µM. The ABCB1 inhibition entry at ABCB1 is “X (Compounds were considered as inhibitors if they reached 20% (+SEM) inhibition compared to the reference inhibitors 33–35; X = fulfilled)”.
`COC(=O)/C(C#N)=C/c1cn(CC(=O)Nc2ccccc2C)c2ccccc12` [Compound 20, Methyl-2-cyano-3-(1-(2-oxo-2-(o-tolylamino)ethyl)-1H-indol-3-yl) Acrylate]: the GI50 was determined as 15.3 µM in the data set with MCF-7 cancer cells and 28.3 ± 0.1 µM in the data set with A-549 cancer cells. The ABCC1 inhibition result on ABCC1 is “X (Compounds were considered as inhibitors if they reached 20% (+SEM) inhibition compared to the reference inhibitors 33–35; X = fulfilled)”. Also, the IC50 at MCT1 came to 0.105 ± 0.006 µM. Further, the ABCB1 inhibition result on ABCB1 was “X (Compounds were considered as inhibitors if they reached 20% (+SEM) inhibition compared to the reference inhibitors 33–35; X = fulfilled)”.
Turning to `COC(=O)/C(C#N)=C/c1cn(CC(=O)Nc2ccc(Br)cc2)c2ccccc12` [Compound 28, Methyl-3-(1-(2-((4-bromophenyl)amino)-2-oxoethyl)-1H-indol-3-yl)-2-cyanoacrylate], the GI50 in the data set on MCF-7 cancer cells came out at 9.99 ± 0.46 µM; in the data set with A-549 cancer cells, 19.2 ± 0.2 µM. The IC50 at MCT1 was 0.287 ± 0.047 µM. For the same compound, at ABCB1, the ABCB1 inhibition entry was “X (Compounds were considered as inhibitors if they reached 20% (+SEM) inhibition compared to the reference inhibitors 33–35; X = fulfilled)”.
Turning to `COC(=O)/C(C#N)=C/c1cn(CC(=O)Nc2ccc3ccccc3c2)c2ccccc12` [Compound 19, Methyl-2-cyano-3-(1-(2-(naphthalen-2-ylamino)-2-oxoethyl)-1H-indol-3-yl) Acrylate], the GI50 in the data set with MCF-7 cancer cells is 15.5 ± 1.3 µM; in the data set on A-549 cancer cells, 26.9 ± 0.3 µM. Besides, on MCT1, the IC50 stood at 0.109 ± 0.003 µM. For the same compound, the ABCB1 inhibition entry at ABCB1 was “X (Compounds were considered as inhibitors if they reached 20% (+SEM) inhibition compared to the reference inhibitors 33–35; X = fulfilled)”.
`COC(=O)/C(C#N)=C/c1cn(CC(=O)Nc2ccccc2)c2ccccc12` [Compound 17, Methyl-2-cyano-3-(1-(2-oxo-2-(phenylamino)ethyl)-1H-indol-3-yl) Acrylate]: the GI50 with MCF-7 cancer cells was 15.4 ± 0.3 µM; with A-549 cancer cells, 29.2 ± 0.2 µM. Moreover, the IC50 on MCT1 stood at 0.314 ± 0.047 µM. At ABCB1, the ABCB1 inhibition entry was “X (Compounds were considered as inhibitors if they reached 20% (+SEM) inhibition compared to the reference inhibitors 33–35; X = fulfilled)”.

For orientation: GI50 means the concentration giving 50% growth inhibition. Usually IC50 stands for the concentration at which inhibition is half-maximal.

The values are drawn from article PMC9841531, “Indole Derivatives as New Structural Class of Potent and Antiproliferative Inhibitors of Monocarboxylate Transporter 1 (MCT1; SLC16A1)” (Journal of Medicinal Chemistry, 2022).
